# Test results as given in the supplement of paper PMC8967900.
# Assays:
# Experiment in all cases: selective drug sensitivity score (sDSS, relative to normal bone marrow) (sDSS (score)); higher = more potent and effective on the cell line relative to normal bone marrow cells
# Conditions in all cases: 72 h
# [1] = tested on: JURKAT
# [2] = tested on: NALM-6
# [3] = tested on: P30-OHKUBO
# [4] = tested on: COG-LL-317
# [5] = tested on: MHH-CALL-4
# [6] = tested on: HPB-ALL
# [7] = tested on: KASUMI-10
# [8] = tested on: MOLT-4
# [9] = tested on: MHH-CALL-3
# [10] = tested on: SUP-B15
# [11] = tested on: COG-LL-332h
# [12] = tested on: KASUMI-2
# [13] = tested on: MOLT-14
# [14] = tested on: DND-41
# [15] = tested on: 697
# [16] = tested on: HAL-01
# [17] = tested on: 380
# [18] = tested on: ALL-PO
# [19] = tested on: MN-60
# [20] = tested on: TANOUE
# 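Further: ALL cell lines in 384-well plates, five doses spanning 10,000-fold, each plate scaled between vehicle and 100 µmol/L benzalkonium chloride controls, sDSS an adapted area-under-curve metric.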
smiles,measurement,setting,value
CN1CCN(c2ccc(C(=O)Nc3n[nH]c4ccc(Cc5cc(F)cc(F)c5)cc34)c(NC3CCOCC3)c2)CC1 [Entrectinib] (top concentration 1000 nM),selective drug sensitivity score,[1],-1.2
same,selective drug sensitivity score,[2],-1.2
same,selective drug sensitivity score,[3],-1.1
same,selective drug sensitivity score,[4],-0.7
same,selective drug sensitivity score,[5],0.4
same,selective drug sensitivity score,[6],-1.2
same,selective drug sensitivity score,[7],3.2
same,selective drug sensitivity score,[8],-1.2
same,selective drug sensitivity score,[9],-1.2
same,selective drug sensitivity score,[10],-0.7
same,selective drug sensitivity score,[11],-0.5
same,selective drug sensitivity score,[12],-1.2
same,selective drug sensitivity score,[13],-0.7
same,selective drug sensitivity score,[14],-1.2
same,selective drug sensitivity score,[15],-1.2
same,selective drug sensitivity score,[16],0
same,selective drug sensitivity score,[17],-1.2
same,selective drug sensitivity score,[18],3.3
same,selective drug sensitivity score,[19],-1.2
same,selective drug sensitivity score,[20],-1.2
CNS(=O)(=O)Nc1nccc(Cc2c(C)c3ccc(Oc4ncccn4)cc3oc2=O)c1F (top concentration 1000 nM),selective drug sensitivity score,[1],0.92
same,selective drug sensitivity score,[2],-0.88
same,selective drug sensitivity score,[3],-1.18
same,selective drug sensitivity score,[4],-1.08
same,selective drug sensitivity score,[5],1.02
same,selective drug sensitivity score,[6],-1.18
same,selective drug sensitivity score,[7],-1.18
same,selective drug sensitivity score,[8],-1.18
same,selective drug sensitivity score,[9],-1.18
same,selective drug sensitivity score,[10],10.1
same,selective drug sensitivity score,[11],-1.08
same,selective drug sensitivity score,[12],1.12
same,selective drug sensitivity score,[13],-0.98
same,selective drug sensitivity score,[14],3.92
same,selective drug sensitivity score,[15],0.02
same,selective drug sensitivity score,[16],0.82
same,selective drug sensitivity score,[17],-1.18
same,selective drug sensitivity score,[18],-1.18
same,selective drug sensitivity score,[19],-1.18
same,selective drug sensitivity score,[20],-1.18
Cc1sc2c(c1C)C(c1ccc(Cl)cc1)=N[C@@H](CC(=O)Nc1ccc(OCCOCCOCCOCCNc3cccc4c3C(=O)N(C3CCC(=O)NC3=O)C4=O)cc1)c1nnc(C)n1-2 (stereo not given in full) [ARV-825] (top concentration 300 nM),selective drug sensitivity score,[1],-13.2
same,selective drug sensitivity score,[2],1.24
same,selective drug sensitivity score,[3],3.74
same,selective drug sensitivity score,[4],-0.26
same,selective drug sensitivity score,[5],7.54
same,selective drug sensitivity score,[6],-10.9
same,selective drug sensitivity score,[7],3.84
same,selective drug sensitivity score,[8],-10.4
same,selective drug sensitivity score,[9],7.44
same,selective drug sensitivity score,[10],6.14
same,selective drug sensitivity score,[11],-1.46
same,selective drug sensitivity score,[12],-4.46
same,selective drug sensitivity score,[13],-0.86
same,selective drug sensitivity score,[14],0.84
same,selective drug sensitivity score,[15],3.14
same,selective drug sensitivity score,[16],-12.1
same,selective drug sensitivity score,[17],2.04
same,selective drug sensitivity score,[18],2.34
same,selective drug sensitivity score,[19],-1.56
same,selective drug sensitivity score,[20],-17.1
CC/C(=C(\c1ccc(O)cc1)c1ccc(OCCN(C)C)cc1)c1ccccc1 [4-hydroxytamoxifen] (top concentration 10000 nM),selective drug sensitivity score,[1],2.02
same,selective drug sensitivity score,[2],0.02
same,selective drug sensitivity score,[3],4.12
same,selective drug sensitivity score,[4],0.62
same,selective drug sensitivity score,[5],0.42
same,selective drug sensitivity score,[6],0.52
same,selective drug sensitivity score,[7],-1.78
same,selective drug sensitivity score,[8],0.62
same,selective drug sensitivity score,[9],-2.58
same,selective drug sensitivity score,[10],0.92
same,selective drug sensitivity score,[11],0.82
same,selective drug sensitivity score,[12],-3.78
same,selective drug sensitivity score,[13],0.32
same,selective drug sensitivity score,[14],2.72
same,selective drug sensitivity score,[15],1.32
same,selective drug sensitivity score,[16],1.92
same,selective drug sensitivity score,[17],-1.48
same,selective drug sensitivity score,[18],3.12
same,selective drug sensitivity score,[19],-2.08
same,selective drug sensitivity score,[20],-2.88
CC[C@]1(O)C[C@H]2CN(CCc3c([nH]c4ccccc34)[C@@](C(=O)OC)(c3cc4c(cc3OC)N(C=O)[C@H]3[C@@](O)(C(=O)OC)[C@H](OC(C)=O)[C@]5(CC)C=CCN6CC[C@]43[C@@H]65)C2)C1 [Vincristine] (top concentration 1000 nM),selective drug sensitivity score,[1],4.52
same,selective drug sensitivity score,[2],10.7
same,selective drug sensitivity score,[3],17.4
same,selective drug sensitivity score,[4],8.92
same,selective drug sensitivity score,[5],-2.28
same,selective drug sensitivity score,[6],14.1
same,selective drug sensitivity score,[7],4.72
same,selective drug sensitivity score,[8],4.02
same,selective drug sensitivity score,[9],4.22
same,selective drug sensitivity score,[10],18.5
same,selective drug sensitivity score,[11],4.22
same,selective drug sensitivity score,[12],8.92
same,selective drug sensitivity score,[13],7.72
same,selective drug sensitivity score,[14],2.02
same,selective drug sensitivity score,[15],17
same,selective drug sensitivity score,[16],-6.38
same,selective drug sensitivity score,[17],14.9
same,selective drug sensitivity score,[18],8.32
same,selective drug sensitivity score,[19],-1.58
same,selective drug sensitivity score,[20],-11.1
CNC(=O)c1ccc(N2C(=S)N(c3ccc(C#N)c(C(F)(F)F)c3)C(=O)C2(C)C)cc1F [Enzalutamide] (top concentration 10000 nM),selective drug sensitivity score,[1],1.18
same,selective drug sensitivity score,[2],0.68
same,selective drug sensitivity score,[3],-0.52
same,selective drug sensitivity score,[4],1.18
same,selective drug sensitivity score,[5],-0.72
same,selective drug sensitivity score,[6],8.28
same,selective drug sensitivity score,[7],-0.82
same,selective drug sensitivity score,[8],-0.82
same,selective drug sensitivity score,[9],-0.82
same,selective drug sensitivity score,[10],3.38
same,selective drug sensitivity score,[11],-0.12
same,selective drug sensitivity score,[12],-0.82
same,selective drug sensitivity score,[13],-0.02
same,selective drug sensitivity score,[14],1.58
same,selective drug sensitivity score,[15],1.48
same,selective drug sensitivity score,[16],-0.82
same,selective drug sensitivity score,[17],-0.82
same,selective drug sensitivity score,[18],0.88
same,selective drug sensitivity score,[19],-0.22
same,selective drug sensitivity score,[20],-0.32
CCc1cncnc1N1CCN(Cc2nc3cc(C(F)(F)F)ccc3[nH]2)CC1 (top concentration 10000 nM),selective drug sensitivity score,[1],7.36
same,selective drug sensitivity score,[2],1.96
same,selective drug sensitivity score,[3],5.26
same,selective drug sensitivity score,[4],1.26
same,selective drug sensitivity score,[5],5.46
same,selective drug sensitivity score,[6],0.96
same,selective drug sensitivity score,[7],2.76
same,selective drug sensitivity score,[8],2.16
same,selective drug sensitivity score,[9],2.46
same,selective drug sensitivity score,[10],3.46
same,selective drug sensitivity score,[11],1.46
same,selective drug sensitivity score,[12],2.76
same,selective drug sensitivity score,[13],0.16
same,selective drug sensitivity score,[14],0.56
same,selective drug sensitivity score,[15],4.16
same,selective drug sensitivity score,[16],4.76
same,selective drug sensitivity score,[17],-0.84
same,selective drug sensitivity score,[18],3.86
same,selective drug sensitivity score,[19],1.96
same,selective drug sensitivity score,[20],3.26
CC[C@@](C)(Nc1ccnc(-c2c[nH]c3ncccc23)n1)C(=O)NCC(F)(F)F [Decernotinib] (top concentration 10000 nM),selective drug sensitivity score,[1],-3.94
same,selective drug sensitivity score,[2],-3.94
same,selective drug sensitivity score,[3],-3.94
same,selective drug sensitivity score,[4],-3.94
same,selective drug sensitivity score,[5],-3.94
same,selective drug sensitivity score,[6],-3.94
same,selective drug sensitivity score,[7],-3.84
same,selective drug sensitivity score,[8],-3.94
same,selective drug sensitivity score,[9],-1.94
same,selective drug sensitivity score,[10],-3.94
same,selective drug sensitivity score,[11],-3.34
same,selective drug sensitivity score,[12],-1.84
same,selective drug sensitivity score,[13],-3.94
same,selective drug sensitivity score,[14],-2.64
same,selective drug sensitivity score,[15],-1.54
same,selective drug sensitivity score,[16],-3.94
same,selective drug sensitivity score,[17],2.56
same,selective drug sensitivity score,[18],-3.94
same,selective drug sensitivity score,[19],-3.94
same,selective drug sensitivity score,[20],-3.94
COC(=O)c1ccc2c(c1)[nH]c1ncnc(NCCCN3CCCCC3)c12 [UM729] (top concentration 10000 nM),selective drug sensitivity score,[1],-0.06
same,selective drug sensitivity score,[2],0.34
same,selective drug sensitivity score,[3],1.44
same,selective drug sensitivity score,[4],0.94
same,selective drug sensitivity score,[5],0.44
same,selective drug sensitivity score,[6],0.64
same,selective drug sensitivity score,[7],2.74
same,selective drug sensitivity score,[8],2.04
same,selective drug sensitivity score,[9],0.54
same,selective drug sensitivity score,[10],2.24
same,selective drug sensitivity score,[11],1.94
same,selective drug sensitivity score,[12],-0.06
same,selective drug sensitivity score,[13],3.94
same,selective drug sensitivity score,[14],0.64
same,selective drug sensitivity score,[15],1.64
same,selective drug sensitivity score,[16],-0.06
same,selective drug sensitivity score,[17],5.74
same,selective drug sensitivity score,[18],2.54
same,selective drug sensitivity score,[19],1.04
same,selective drug sensitivity score,[20],-0.06
